Reference: patent publication US20140128385A1 (NOVARTIS AG, priority 2011, published 2014)
Counter-ions that a name gives are not always drawn.

Molecular target: T1, BACE-2 (Homo sapiens, UniProt Q9Y5Z0)
T1 construct: Recombinant BACE-2 (extracellular domain, expressed in baculovirus and purified using standard methods); made in house
T1 sequence (Q9Y5Z0 63-473 limits assumed): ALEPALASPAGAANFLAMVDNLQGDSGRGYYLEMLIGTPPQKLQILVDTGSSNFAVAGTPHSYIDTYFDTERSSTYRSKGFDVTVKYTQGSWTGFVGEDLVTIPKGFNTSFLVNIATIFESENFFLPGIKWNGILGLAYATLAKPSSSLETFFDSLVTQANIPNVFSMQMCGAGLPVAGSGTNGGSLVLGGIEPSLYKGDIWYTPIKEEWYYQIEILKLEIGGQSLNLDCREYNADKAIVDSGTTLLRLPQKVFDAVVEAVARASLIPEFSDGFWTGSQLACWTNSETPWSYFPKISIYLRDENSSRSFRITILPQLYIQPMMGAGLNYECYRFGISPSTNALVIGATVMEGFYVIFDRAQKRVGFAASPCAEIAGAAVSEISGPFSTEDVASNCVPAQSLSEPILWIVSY
Test: assay for inhibition of BACE-2
Type: biochemical

IC50 [nM] | SMILES
> 10000 | CC1(c2cccc(NC(=O)c3coc(C(F)(F)F)c3)c2)COCC(N)=N1 (centres unmarked) [Example 23, 5-Trifluoromethyl-furan-3-carboxylic acid [3-(5-amino-3-methyl-3,6-dihydro-2H-[1,4]oxazin-3-yl)-phenyl]-amide hydrochloride]
1070 | CC1(c2cccc(NC(=O)c3ccc(Br)cc3)c2)COCC(N)=N1 (centres unmarked) [Example 24, N-[3-(5-Amino-3-methyl-3,6-dihydro-2H-[1,4]oxazin-3-yl)-phenyl]-4-bromo-benzamide hydrochloride]
> 10000 | CC1(c2cccc(NC(=O)C3CCCCC3)c2)COCC(N)=N1 (centres unmarked) [Example 25, Cyclohexanecarboxylic acid [3-(5-amino-3-methyl-3,6-dihydro-2H-[1,4]oxazin-3-yl)-phenyl]-amide hydrochloride]
> 10000 | CC1(c2cccc(NC(=O)C3CCC(F)(F)CC3)c2)COCC(N)=N1 (centres unmarked) [Example 26, 4,4-Difluoro-cyclohexanecarboxylic acid [3-(5-amino-3-methyl-3,6-dihydro-2H-[1,4]oxazin-3-yl)-phenyl]-amide hydrochloride]
374 | Cc1ccc(C(=O)Nc2cccc(C3(C)COCC(N)=N3)c2)nc1 (centres unmarked) [Example 27, 5-Methyl-pyridine-2-carboxylic acid [3-(5-amino-3-methyl-3,6-dihydro-2H-[1,4]oxazin-3-yl)-phenyl]-amide hydrochloride]
> 10000 | CC1(c2cccc(NC(=O)c3cccnc3)c2)COCC(N)=N1 (centres unmarked) [Example 28, N-[3-(5-Amino-3-methyl-3,6-dihydro-2H-[1,4]oxazin-3-yl)-phenyl]-nicotinamide hydrochloride]
21 | Cc1cc(Br)cnc1C(=O)Nc1cccc([C@]2(C)COCC(=N)N2)c1 [Example 29, 5-Bromo-3-methyl-pyridine-2-carboxylic acid [3-((R)-5-amino-3-methyl-3,6-dihydro-2H-[1,4]oxazin-3-yl)-phenyl]-amide hydrochloride]
367 | COc1ccc(C(=O)Nc2cccc([C@]3(C)COCC(N)=N3)c2)nc1 [Example 30, 5-Methoxy-pyridine-2-carboxylic acid [3-((R)-5-amino-3-methyl-3,6-dihydro-2H-[1,4]oxazin-3-yl)-phenyl]-amide hydrochloride]
130 | NC1=NC(CF)(c2cccc(NC(=O)c3ccc(Br)cn3)c2)COC1 (centres unmarked) [Example 31, 5-Bromo-pyridine-2-carboxylic acid [3-(5-amino-3-fluoromethyl-3,6-dihydro-2H-[1,4]oxazin-3-yl)-phenyl]-amide]
1020 | NC1=NC(CF)(c2cc(Cl)cc(NC(=O)c3ccc(Br)cn3)c2)COC1 (centres unmarked) [Example 32]
90 | NC1=N[C@](CF)(c2cccc(NC(=O)c3ccc(Br)cn3)c2)COC1 [Example 33, 5-Bromo-pyridine-2-carboxylic acid [3-((R)-5-amino-3-fluoromethyl-3,6-dihydro-2H-[1,4]oxazin-3-yl)-phenyl]-amide]
345 | NC1=NC(c2cccc(NC(=O)c3ccc(Br)cn3)c2)(C(F)F)COC1 (centres unmarked) [Example 34, 5-Bromo-pyridine-2-carboxylic acid [3-(5-amino-3-difluoromethyl-3,6-dihydro-2H-[1,4]oxazin-3-yl)-phenyl]-amide hydrochloride]
139 | NC1=NC(c2cccc(NC(=O)c3ccc(Cl)cn3)c2)(C(F)F)COC1 (centres unmarked) [Example 35]
910 | N#Cc1ccc(C(=O)Nc2cccc(C3(C(F)F)COCC(N)=N3)c2)nc1 (centres unmarked) [Example 36]
58 | Cc1cc(Br)cnc1C(=O)Nc1cccc(C2(C(F)F)COCC(N)=N2)c1 (centres unmarked) [Example 37]
9010 | Cc1cnc(C(=O)Nc2cccc(C3(C(F)F)COCC(N)=N3)c2)cn1 (centres unmarked) [Example 38]
2970 | NC1=NC(c2cccc(NC(=O)c3ccc(C(F)(F)F)cn3)c2)(C(F)F)COC1 (centres unmarked) [Example 39]
2450 | NC1=NC(c2cccc(NC(=O)c3ncc(C(F)(F)F)cc3Cl)c2)(C(F)F)COC1 (centres unmarked) [Example 40]
28 | Cc1cc(Cl)cnc1C(=O)Nc1cccc(C2(C(F)F)COCC(N)=N2)c1 (centres unmarked) [Example 41]
53 | NC1=NC(c2cc(NC(=O)c3ccc(Br)cn3)ccc2F)(C(F)F)COC1 (centres unmarked) [Example 42, 5-Bromo-pyridine-2-carboxylic acid [3-(5-amino-3-difluoromethyl-3,6-dihydro-2H-[1,4]oxazin-3-yl)-4-fluoro-phenyl]-amide hydrochloride]
28 | NC1=NC(c2cc(NC(=O)c3ccc(Cl)cn3)ccc2F)(C(F)F)COC1 (centres unmarked) [Example 43]
5 | Cc1cc(Cl)cnc1C(=O)Nc1ccc(F)c([C@]2(C(F)F)COCC(N)=N2)c1 [Example 44]
10 | Cc1cc(Br)cnc1C(=O)Nc1ccc(F)c([C@]2(C(F)F)COCC(N)=N2)c1 [Example 45]
130 | NC1=N[C@@](c2cc(NC(=O)c3ncc(C(F)(F)F)cc3Cl)ccc2F)(C(F)F)COC1 [Example 46]
251 | NC1=N[C@@](c2cc(NC(=O)c3ccc(C(F)(F)F)cn3)ccc2F)(C(F)F)COC1 [Example 47]
511 | Cc1cnc(C(=O)Nc2ccc(F)c([C@]3(C(F)F)COCC(N)=N3)c2)cn1 [Example 48]
27 | COc1ccc(C(=O)Nc2cccc([C@]3(C)CO[C@@](C)(C(F)(F)F)C(N)=N3)c2)nc1 [Example 67]

IC50 [nM] | SMILES
3 | C[C@@]1(c2cc(NC(=O)c3ccc(Br)cn3)ccc2F)CO[C@@](C)(C(F)(F)F)C(N)=N1 [Example 68]
1 | COc1ccc(C(=O)Nc2ccc(F)c([C@]3(C)CO[C@@](C)(C(F)(F)F)C(N)=N3)c2)nc1 [Example 69]
4 | C[C@@]1(c2cc(NC(=O)c3ncc(C#N)cn3)ccc2F)CO[C@@](C)(C(F)(F)F)C(N)=N1 [Example 70]
3 | C[C@@]1(c2cc(NC(=O)c3ncc(Br)cn3)ccc2F)CO[C@@](C)(C(F)(F)F)C(N)=N1 [Example 71, 5-Bromo-pyrimidine-2-carboxylic acid [3-((3R,6R)-5-amino-3,6-dimethyl-6-trifluoromethyl-3,6-dihydro-2H-[1,4]oxazin-3-yl)-4-fluoro-phenyl]-amide hydrochloride]
27 | C[C@@]1(c2cc(NC(=O)c3ccc(C#N)cn3)ccc2F)CO[C@@](C)(C(F)(F)F)C(N)=N1 [Example 73]
514 | COCCOc1cnc(C(=O)Nc2ccc(F)c([C@]3(C)CO[C@@](C)(C(F)(F)F)C(N)=N3)c2)cn1 [Example 74]
316 | CC1(C)OCC(c2cc(NC(=O)c3ccc(C#N)cn3)ccc2F)(C(F)F)N=C1N (centres unmarked) [Example 79, 5-Cyano-pyridine-2-carboxylic acid[3-(5-amino-3-difluoromethyl-6,6-dimethyl-3,6-dihydro-2H-[1,4]oxazin-3-yl)-4-fluoro-phenyl]-amide]
64 | CC1(C)OCC(c2cc(NC(=O)c3ccc(Br)cn3)ccc2F)(C(F)F)N=C1N (centres unmarked) [Example 80]
4290 | NC1=NC(c2cc(NC(=O)c3ccc(Br)cn3)c(F)cc2F)(C(F)F)COC1 (centres unmarked) [Example 81]
1230 | N#Cc1ccc(C(=O)Nc2cc(C3(C(F)F)COCC(N)=N3)c(F)cc2F)nc1 (centres unmarked) [Example 82]
5880 | COc1cc(Br)cnc1C(=O)Nc1cc(C2(C(F)F)COCC(N)=N2)c(F)cc1F (centres unmarked) [Example 83]
3440 | NC1=NC(c2cc(NC(=O)c3ncc(Br)cc3O)c(F)cc2F)(C(F)F)COC1 (centres unmarked) [Example 84]
8 | NC1=N[C@](CF)(c2cc(NC(=O)c3ccc(Cl)cn3)ccc2F)COC1 [Example 85, 5-Chloro-pyridine-2-carboxylic acid [3-((R)-5-amino-3-fluoromethyl-3,6-dihydro-2H-[1,4]oxazin-3-yl)-4-fluoro-phenyl]-amide hydrochloride]
32 | NC1=NC(CF)(c2cc(NC(=O)c3ccc(Br)cn3)ccc2F)COC1 (centres unmarked) [Example 86]
25 | NC1=NC(CF)(c2cc(NC(=O)c3ccc(Cl)cn3)ccc2F)COC1 (centres unmarked) [Example 87]
12 | NC1=NC(CF)(c2cc(NC(=O)c3ncc(Cl)cc3Cl)ccc2F)COC1 (centres unmarked) [Example 88]
152 | N#Cc1ccc(C(=O)Nc2ccc(F)c(C3(CF)COCC(N)=N3)c2)nc1 (centres unmarked) [Example 89]
11 | Cc1cc(Br)cnc1C(=O)Nc1ccc(F)c(C2(CF)COCC(N)=N2)c1 (centres unmarked) [Example 90]
6 | Cc1cc(Br)cnc1C(=O)Nc1ccc(F)c([C@]2(CF)COCC(N)=N2)c1 [Example 91]
0.4 | Cc1cc(Cl)cnc1C(=O)Nc1ccc(F)c([C@]2(CF)COCC(N)=N2)c1 [Example 92]
1.4 | Cl.[2H]c1nc(C(=O)Nc2ccc(F)c([C@]3(CF)COCC(N)=N3)c2)c(C([2H])([2H])[2H])c([2H])c1Cl [Example 93]
33 | NC1=N[C@](CF)(c2cc(NC(=O)c3ncc(Br)cc3O)ccc2F)COC1 [Example 94]
53 | COc1cc(Br)cnc1C(=O)Nc1ccc(F)c([C@]2(CF)COCC(N)=N2)c1 [Example 95]
11 | NC1=N[C@@](c2cc(NC(=O)c3ccc(Br)cn3)ccc2F)(C(F)F)CCOC1 [Example 97]
144 | N#Cc1ccc(C(=O)Nc2ccc(F)c(C3(C(F)(F)F)CCOCC(N)=N3)c2)nc1 (centres unmarked) [Example 98, 5-Cyano-pyridine-2-carboxylic acid [3-(3-amino-5-trifluoromethyl-2,5,6,7-tetrahydro-[1,4]oxazepin-5-yl)-4-fluoro-phenyl]-amide hydrochloride]
37 | NC1=NC(c2cc(NC(=O)c3ccc(Br)cn3)ccc2F)(C(F)(F)F)CCOC1 (centres unmarked) [Example 99]
